Results reported in PubChem BioAssay (NCI).
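All cell lines were grown in 96-well plates and treated with compound for 48 hours. TGI marks complete inhibition of growth.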

Experiments:
Assay in all cases: DTP human tumour cell line panel, 48 h
MDA-MB-231 breast = test system: MDA-MB-231 breast
MDA-N = test system: MDA-N
TK-10 renal = test system: TK-10 renal
NCI/ADR-RES ovarian = test system: NCI/ADR-RES ovarian
SK-OV-3 ovarian = test system: SK-OV-3 ovarian
MCF7 breast = test system: MCF7 breast
OVCAR-4 ovarian = test system: OVCAR-4 ovarian
HOP-92 NSCLC = test system: HOP-92 NSCLC
OVCAR-3 ovarian = test system: OVCAR-3 ovarian
A549 NSCLC = test system: A549 NSCLC
SNB-19 CNS = test system: SNB-19 CNS
EKVX NSCLC = test system: EKVX NSCLC
HS 578T breast = test system: HS 578T breast
U251 CNS = test system: U251 CNS
COLO 205 colon = test system: COLO 205 colon
PC-3 prostate = test system: PC-3 prostate
SF-268 CNS = test system: SF-268 CNS
SNB-75 CNS = test system: SNB-75 CNS
SK-MEL-28 melanoma = test system: SK-MEL-28 melanoma
HCT-116 colon = test system: HCT-116 colon
HT29 colon = test system: HT29 colon
UACC-62 melanoma = test system: UACC-62 melanoma
UO-31 renal = test system: UO-31 renal
OVCAR-8 ovarian = test system: OVCAR-8 ovarian
RPMI-8226 leukemia = test system: RPMI-8226 leukemia
RXF 393 renal = test system: RXF 393 renal
MALME-3M melanoma = test system: MALME-3M melanoma
KM12 colon = test system: KM12 colon
M14 melanoma = test system: M14 melanoma
DU-145 prostate = test system: DU-145 prostate
K-562 leukemia = test system: K-562 leukemia
A498 renal = test system: A498 renal
BT-549 breast = test system: BT-549 breast
NCI-H522 lung = test system: NCI-H522 lung
MDA-MB-435 = test system: MDA-MB-435
NCI-H460 lung = test system: NCI-H460 lung
UACC-257 melanoma = test system: UACC-257 melanoma
OVCAR-5 ovarian = test system: OVCAR-5 ovarian
ACHN renal = test system: ACHN renal
SK-MEL-2 melanoma = test system: SK-MEL-2 melanoma
CCRF-CEM leukemia = test system: CCRF-CEM leukemia
IGROV1 ovarian = test system: IGROV1 ovarian
CAKI-1 renal = test system: CAKI-1 renal
SK-MEL-5 melanoma = test system: SK-MEL-5 melanoma
SF-295 CNS = test system: SF-295 CNS
SW-620 colon = test system: SW-620 colon
HCT-15 colon = test system: HCT-15 colon
HCC-2998 colon = test system: HCC-2998 colon
786-0 renal = test system: 786-0 renal
MOLT-4 leukemia = test system: MOLT-4 leukemia
NCI-H23 lung = test system: NCI-H23 lung
HOP-62 NSCLC = test system: HOP-62 NSCLC
NCI-H226 lung = test system: NCI-H226 lung
SR leukemia = test system: SR leukemia
SF-539 CNS = test system: SF-539 CNS
LOX IMVI melanoma = test system: LOX IMVI melanoma
HL-60(TB) leukemia = test system: HL-60(TB) leukemia
SN12C renal = test system: SN12C renal
T-47D breast = test system: T-47D breast

Measured: TGI

CCOP(=O)(OCC)c1cc(-c2ccccc2)ccc1N
not listed: NCI-H226 lung | SR leukemia | SF-539 CNS | LOX IMVI melanoma | HL-60(TB) leukemia | SN12C renal | T-47D breast
> 100 µM: all other assays above

Cc1ccc(-n2cc(-c3ccc(Cl)cc3)c3c2N=CN2NC(c4ccco4)=NC32)cc1 (configuration not stated)
83.6 µM: SF-268 CNS
72.3 µM: IGROV1 ovarian
30.7 µM: RXF 393 renal
31.5 µM: UACC-62 melanoma
68.6 µM: NCI-H226 lung
42.6 µM: SNB-19 CNS
27.8 µM: SF-295 CNS
16 µM: SK-OV-3 ovarian
26 µM: MDA-MB-231 breast
27.5 µM: OVCAR-8 ovarian | SK-MEL-2 melanoma
24 µM: HOP-62 NSCLC
17.4 µM: 786-0 renal
27.3 µM: CAKI-1 renal
86.6 µM: NCI/ADR-RES ovarian
7.16 µM: HS 578T breast
29.2 µM: A498 renal
18.1 µM: SNB-75 CNS
11.6 µM: SR leukemia
9.88 µM: HOP-92 NSCLC
28.7 µM: TK-10 renal
99.2 µM: BT-549 breast
24.5 µM: ACHN renal
20.8 µM: U251 CNS
4.03 µM: OVCAR-4 ovarian
31.8 µM: HCT-116 colon
47.5 µM: UO-31 renal
72.4 µM: NCI-H23 lung
90 µM: NCI-H522 lung
51.3 µM: SF-539 CNS
73.8 µM: OVCAR-3 ovarian
not listed: RPMI-8226 leukemia | KM12 colon | MOLT-4 leukemia | T-47D breast
> 100 µM: all other assays above

Clc1cccc(C2ON=C(c3ccccc3)N2C23CC4CC(CC(C4)C2)C3)c1Cl (configuration not stated)
not listed: BT-549 breast | SR leukemia | HL-60(TB) leukemia
> 10 µM: all other assays above

CC1(C)OC(CCO)CN1C(=O)OCc1ccccc1 (configuration not stated)
not listed: HS 578T breast | SF-268 CNS | HT29 colon | HOP-62 NSCLC | T-47D breast
> 100 µM: all other assays above
